Test results taken from US8475823B2, “Baclofen formulation in a polyorthoester carrier” (Medtronic, Inc., priority 2008, dated 2013).

Assays:
[1] = test system: normal bladder activity (frequency of reflex bladder contractions); test: Epidural infusion of baclofen in a rat model of bladder pain, intravesical saline infusion (normal bladder activity); format: in vivo; conditions: female rat, epidural infusion 10 μg/day
Procedure: (§1) FIG. 1 is a graphic representation of epidural infusion of baclofen in rats treated with an intravesical infusion of saline. Baseline bladder activity was measured before epidural drug treatment as described in Example 4. The columns and error bars represent the mean and SEM values of 10 rats per group. Asterisks indicate statistically significant dose effects compared to baseline as determined by post-hoc Dunnett Multiple Comparison Test.
(§2) An animal model that has been used frequently to study pelvic pain conditions is a rat model of bladder pain. In this model, a female rat was lightly anesthetized with isoflurane and a transurethral catheter was placed into the bladder. The catheter was connected to a pressure transducer so that the pressure within the bladder could be continuously monitored and recorded over time. Fluid was continuously infused into the bladder using a syringe pump at a rate of 0.1 mL/min to cause the bladder to contract repeatedly each time it became full. This is referred to as a volume-evoked micturition reflex or contraction. A repeated series of bladder contractions (pressure spikes) over time was collected using this method. To mimic normal bladder activity, 0.9% saline was infused into the bladder; to mimic painful bladder activity, a dilute solution of acetic acid (0.5%) was infused into the bladder. […]

[2] = test system: acetic acid induced bladder hypermotility (frequency of bladder contraction reflexes); test: Epidural infusion of baclofen in a rat model of bladder pain, intravesical acetic acid infusion (painful bladder activity); format: in vivo; conditions: female rat, epidural infusion 10 μg/day
Procedure: as §1, with “FIG. 2” for “FIG. 1”, “of acetic acid as described in Example 4.” for “of saline.”, “drug treatment.” for “drug treatment as described in Example 4.”
as §2, with “contraction.” for “contraction. A repeated series of bladder contractions (pressure spikes) over time was collected using this method. To mimic normal bladder activity, 0.9% saline was infused into the bladder; to mimic painful bladder activity, a dilute solution of acetic acid (0.5%) was infused into the bladder.”
In order to evaluate the effects of epidurally administered analgesics on normal and painful bladder activity (frequency of reflex bladder contractions), test drugs were continuously administered via an epidural catheter with the tip placed in the mid-lumbar epidural space. […] In the experiments depicted in FIGS. 1 and 2, the baseline bladder activity was measured before implanting the epidural infusion system, the infusion system was implanted on day 0 and cystometrograms were recorded on three consecutive days during which baclofen (10 μg/day) was infused into the lumbar epidural space.
Baclofen at 10 μg/day reduced acetic acid induced bladder hypermotility by approximately 3 fold on day 3. The frequency of bladder contraction observed during acetic acid infusion and epidural baclofen administration was similar to the baseline bladder activity measured during saline infusion (0.195±0.047 day 3 acetic acid and epidural baclofen vs 0.193±0.035 baseline saline).

SMILES: NCC(CC(=O)O)c1ccc(Cl)cc1 (centres unmarked) [baclofen, 4-amino-3-(4-chlorophenyl)butanoic acid]
- effects on normal bladder activity measured during saline infusion ([1]; days 1 and 2, vs baseline): minimal effects
- contraction rate relative to the baseline reflex contraction rate ([1]; saline infusion, day three): statistically significant reductions
- frequency of bladder contraction reflexes during acetic acid infusion ([2]; 0.5% acetic acid, all three days, vs baseline): significantly reduced
- reduction of acetic acid induced bladder hypermotility ([2]; day 3): approximately 3 fold
- frequency of bladder contraction during acetic acid infusion and epidural baclofen administration ([2]; day 3, mean ± SEM, 10 rats per group): 0.195±0.047 reflexes per min
